15 compounds from ChEMBL document CHEMBL2074014, “Role of blood-brain barrier organic anion transporter 3 (OAT3) in the efflux of indoxyl sulfate, a uremic toxin: its involvement in neurotransmitter metabolite clearance from the brain” (J Neurochem, 2002) can be followed below.

In series [1] the target is T1, Organic anion transporter 3 (OAT3) (Rattus norvegicus, UniProt Q9R1U7).
T1 sequence (Q9R1U7 whole entry): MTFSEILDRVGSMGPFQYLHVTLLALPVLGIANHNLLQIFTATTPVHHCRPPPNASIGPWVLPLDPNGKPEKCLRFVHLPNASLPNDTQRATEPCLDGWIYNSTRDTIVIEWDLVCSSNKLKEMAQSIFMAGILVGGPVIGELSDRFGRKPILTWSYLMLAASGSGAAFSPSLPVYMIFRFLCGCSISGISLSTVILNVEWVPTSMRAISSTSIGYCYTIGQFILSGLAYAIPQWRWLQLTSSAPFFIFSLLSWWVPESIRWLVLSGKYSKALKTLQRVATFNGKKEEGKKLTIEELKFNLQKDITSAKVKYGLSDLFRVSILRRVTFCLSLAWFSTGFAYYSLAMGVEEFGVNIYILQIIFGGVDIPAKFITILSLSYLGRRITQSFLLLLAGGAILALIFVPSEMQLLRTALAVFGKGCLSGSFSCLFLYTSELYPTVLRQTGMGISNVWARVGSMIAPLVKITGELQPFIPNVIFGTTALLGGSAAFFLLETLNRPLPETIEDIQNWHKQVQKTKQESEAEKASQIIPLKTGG
Briefly: TP_TRANSPORTER: inhibition of Indoxyl sulfate uptake (Indoxyl sulfate: 2 uM, 5-Methoxytryptophol: 1000 uM) in Xenopus laevis oocytes. It counts as functional, cell-based, Oocyte. Details: scale not given: the % may be the effect or the level left. Conditions: probe Indoxyl sulfate, read-out: Activity.

Series [2] has as its target T1, Organic anion transporter 3 (OAT3). As to the kind of experiment: TP_TRANSPORTER: inhibition of Indoxyl sulfate uptake (Indoxyl sulfate: 2 uM, 3-Methoxy-4-hydroxymandelic acid: 1000 uM) in Xenopus laevis oocytes. Conditions: probe Indoxyl sulfate, read-out: Activity. It counts as functional, cell-based, Oocyte. Details: scale not given: the % may be the effect or the level left.

Series [3] shares this target. As to the kind of experiment: TP_TRANSPORTER: inhibition of Indoxyl sulfate uptake (Indoxyl sulfate: 2 uM, 3,4-Dihydroxymandelic acid: 1000 uM) in Xenopus laevis oocytes. The series is classed as functional, cell-based, Oocyte. Conditions: probe Indoxyl sulfate, read-out: Activity. Details: scale not given: the % may be the effect or the level left.
The target is the same in series [4]. As to the kind of experiment: TP_TRANSPORTER: inhibition of Indoxyl sulfate uptake (Indoxyl sulfate: 2 uM, 5-Hydroxyindole acetic acid: 1000 uM) in Xenopus laevis oocytes. The series is classed as functional, cell-based, Oocyte. The arrangement: scale not given: the % may be the effect or the level left. Conditions: probe Indoxyl sulfate, read-out: Activity.

Series [5] shares this target. Briefly: TP_TRANSPORTER: inhibition of Indoxyl sulfate uptake (Indoxyl sulfate: 2 uM, 3,4-Dihydroxyphenylacetic acid: 1000 uM) in Xenopus laevis oocytes. Conditions: probe Indoxyl sulfate, read-out: Activity. It counts as functional, cell-based, Oocyte. Details: scale not given: the % may be the effect or the level left.
The target is the same in series [6]. Briefly: TP_TRANSPORTER: inhibition of Indoxyl sulfate uptake (Indoxyl sulfate: 2 uM, ACV: 1000 uM) in Xenopus laevis oocytes. The series is classed as functional, cell-based, Oocyte. The arrangement: scale not given: the % may be the effect or the level left. Conditions: probe Indoxyl sulfate, read-out: Activity.
For series [7] the target is unchanged. As to the kind of experiment: TP_TRANSPORTER: inhibition of Indoxyl sulfate uptake (Indoxyl sulfate: 2 uM, Baclofen: 1000 uM) in Xenopus laevis oocytes. It counts as functional, cell-based, Oocyte. The arrangement: scale not given: the % may be the effect or the level left. Conditions: probe Indoxyl sulfate, read-out: Activity.
Series [8] has the same target. Briefly: TP_TRANSPORTER: inhibition of Indoxyl sulfate uptake (Indoxyl sulfate: 2 uM, Benzoic acid: 1000 uM) in Xenopus laevis oocytes. It counts as functional, cell-based, Oocyte. The arrangement: scale not given: the % may be the effect or the level left. Conditions: probe Indoxyl sulfate, read-out: Activity.
Series [9] has the same target. Briefly: TP_TRANSPORTER: inhibition of Indoxyl sulfate uptake (Indoxyl sulfate: 2 uM, Cefazolin: 1000 uM) in Xenopus laevis oocytes. The arrangement: scale not given: the % may be the effect or the level left. Conditions: probe Indoxyl sulfate, read-out: Activity. The series is classed as functional, cell-based, Oocyte.
For series [10] the target is unchanged. Briefly: TP_TRANSPORTER: inhibition of Indoxyl sulfate uptake (Indoxyl sulfate: 2 uM, HVA: 1000 uM) in Xenopus laevis oocytes. The series is classed as functional, cell-based, Oocyte. Conditions: probe Indoxyl sulfate, read-out: Activity. Details: scale not given: the % may be the effect or the level left.
For series [11] the target is unchanged. Briefly: TP_TRANSPORTER: inhibition of Indoxyl sulfate uptake (Indoxyl sulfate: 2 uM, Imidazoleacetic acid: 1000 uM) in Xenopus laevis oocytes. The series is classed as functional, cell-based, Oocyte. Conditions: probe Indoxyl sulfate, read-out: Activity. Details: scale not given: the % may be the effect or the level left.
Series [12] has as its target T2, Organic anion transporter 3 (Rattus norvegicus, UniProt Q9R1U7).
T2 sequence (Q9R1U7 whole entry): T1 sequence (Q9R1U7 whole entry)
Briefly: TP_TRANSPORTER: inhibition of Indoxyl sulfate uptake (Indoxyl sulfate: 2 uM, Ketoprofen: 1000 uM) in Xenopus laevis oocytes. Details: scale not given: the % may be the effect or the level left. It counts as functional, cell-based. Conditions: oocyte.

The target in series [13] is T1, Organic anion transporter 3 (OAT3). As to the kind of experiment: TP_TRANSPORTER: inhibition of Indoxyl sulfate uptake (Indoxyl sulfate: 2 uM, Melatonin: 1000 uM) in Xenopus laevis oocytes. It counts as functional, cell-based, Oocyte. The arrangement: scale not given: the % may be the effect or the level left. Conditions: probe Indoxyl sulfate, read-out: Activity.

Series [14] shares this target. As to the kind of experiment: TP_TRANSPORTER: inhibition of Indoxyl sulfate uptake (Indoxyl sulfate: 2 uM, 6-mercaptopurine: 1000 uM) in Xenopus laevis oocytes. Conditions: probe Indoxyl sulfate, read-out: Activity. The arrangement: scale not given: the % may be the effect or the level left. The series is classed as functional, cell-based, Oocyte.
Series [15] has as its target T2, Organic anion transporter 3. As to the kind of experiment: TP_TRANSPORTER: inhibition of Indoxyl sulfate uptake (Indoxyl sulfate: 2 uM, Valproic acid: 1000 uM) in Xenopus laevis oocytes. The series is classed as functional, cell-based. Conditions: oocyte.

As to `COc1ccc2[nH]cc(CCO)c2c1`, the activity at 1000 µM in series [1] was determined as 26.8%.
With `COc1cc([C@@H](O)C(=O)O)ccc1O`, the activity at 1000 µM in series [2] is 27.3%.
As for `O=C(O)[C@H](O)c1ccc(O)c(O)c1`, the activity at 1000 µM in series [3] was determined as 33.5%.
Take `O=C(O)Cc1c[nH]c2ccc(O)cc12`: the activity at 1000 µM in series [4] turned out to be 18.7%.
With `O=C(O)Cc1ccc(O)c(O)c1` [3,4-DIHYDROXYPHENYLACETIC ACID], the activity at 1000 µM in series [5] stood at 8.86%.
As for `Nc1nc2c(ncn2COCCO)c(=O)[nH]1` [ACYCLOVIR], the activity at 1000 µM in series [6] was 7.66%.
With `NCC(CC(=O)O)c1ccc(Cl)cc1` (stereo not given) [BACLOFEN], in series [7], the activity at 1000 µM came out at 25.7%.
As for `O=C(O)c1ccccc1` [BENZOIC ACID], the activity at 1000 µM in [8] is 71.6%.
Turning to `Cc1nnc(SCC2=C(C(=O)O)N3C(=O)[C@@H](NC(=O)Cn4cnnn4)[C@H]3SC2)s1` [CEFAZOLIN], the activity at 1000 µM in [9] came to 13.6%.
Take `COc1cc(CC(=O)O)ccc1O` [HOMOVANILLIC ACID]: the activity at 1000 µM in [10] came to 29.9%.
For `O=C(O)Cc1ncc[nH]1` [IMIDAZOLEACETIC ACID], the activity at 1000 µM in [11] came to 69.4%.
As for `CC(C(=O)O)c1cccc(C(=O)c2ccccc2)c1` (stereo not given) [KETOPROFEN], in series [12], the Activity came to 22.3%.
On to `COc1ccc2[nH]cc(CCNC(C)=O)c2c1` [MELATONIN], for which, in series [13], the activity at 1000 µM turned out to be 30.9%.
With `Sc1ncnc2nc[nH]c12` [MERCAPTOPURINE ANHYDROUS], the activity at 1000 µM in [14] came out at 19.1%.
Consider `CCCC(CCC)C(=O)O` [VALPROIC ACID], for which the Activity result in [15] is “is not an inhibitor [-]”.
